Laboratory results reported in patent US10399931B2, “Octahydroanthracene compound, preparation method and application thereof” (SHANDONG XINHUA PHARMACEUTICAL CO., LTD., priority 2016, dated 2019).

Experiments:
[1] = test system: Human leukemia HL60 cells; test: MTT assay, proliferation of human leukemia HL60 cells; format: cell-based; settings: Homo sapiens, HL-60, 48 h, 10 μM, 48 h, Mean ± SE; read-out: Inhibitive rate (%) against HL60 cells
Experimental: (§1) The survival rate of cells was determined by MTT assay, which is based on the metabolic reduction of 3-(4,5-dimethyl-2thiahiazoyl)-3,5-di-phenyl-tetrazolium bromide (MTT) by viable cells. MTT is a yellow compound, a dye that accepts hydrogen ion, which can act on the respiratory chain in the mitochondria of viable cells. Under the action of succinate dehydrogenase and cytochrome C, the tetrazolium ring was cleaved to form blue Formazan crystals, and the amount of Formazan crystals generated was only proportional to the number of the viable cells. The enzymes disappeared in dead cells, so Formazan crystals could not be dissolved in MTT solution containing 20% sodium dodecyl sulfate (pH 4.7).
(§2) The cells in the logarithmic growth phase were selected and adjusted to an appropriate cell density, seeded in a 96-well plate, 100 μl/well, and cultured in a 37° C., 5% CO2 incubator. The cells were allowed to adhere overnight, then the culture medium was replaced and the drug was added to cultivate for 48 h. A blank control group, a drug administration group and a positive control group were set, with four repeats in each group.
(§3) After 48 h of drug treatment, the cells were incubated with 0.25 mg/ml MTT at 37° C. for 3-4 h, and 100 μl of dimethyl sulfoxide (DMSO) was added to each well after aspirating the culture solution.

[2] = test system: Human cutaneous T-cell lymphoma Hut102 cells; test: MTT assay, proliferation of human cutaneous T-cell lymphoma Hut102 cells; format: cell-based; settings: HuT-102, 10 μM, Mean ± SE, read-out: Inhibitive rate (%) against Hut102 cells
Experimental: as §1, §2, §3

[3] = test system: APP/PS1 double transgenic AD model mice; test: β-amyloid deposition in cerebral cortex and hippocampus of APP/PS1 mice; format: in vivo
Experimental: The drugs were administered three days after the adaptive feeding. Peanut oil was used as the solvent. […] On the 6th to 9th day after the administration, the new object identification test was performed. On the 10th day, the Y-maze test was performed. On the 11th to 15th day, the Morris water maze test was performed to determine the improvement of learning and memory. The administration of the drugs was continued during the behavioral experiment until the animals were sacrificed (16th day).
After the behavioral experiment, the mice were anesthetized with an intraperitoneal injection of 3.5% chloral hydrate 3.5% (about […] for each mouse). Then the back of the mouse was fixed on the operating table and the chest was open to expose the heart. A perfusion needle was inserted into the left ventricle from the apex of the heart, while the right atrial appendage cut a small opening. First, perfusion was performed with about 200 ml saline. When the tail of the mouse was cut to find no blood, 300 ml 4% paraformaldehyde buffer (0.1 mol/L) at 4° C. was used to perfuse until the body of the mouse was stiff. The mouse was then decapitated, and the whole brain was obtained and fixed in 4% paraformaldehyde at 4° C. After 24 h, the brain was embedded in conventional paraffin and coronally sectioned to obtain the tissue sections with a thickness of 5 μm for immunohistochemical staining. […]

[4] = test system: Aβ metabolizing enzymes NEP and IDE; test: Expression of Aβ metabolizing enzymes in the brain of APP/PS1 mice; format: in vivo
Experimental: After the behavioral experiment, the animals were anesthetized with an intraperitoneal injection of 3.5% chloral hydrate and cut off the heads quickly to take out the brains. The hippocampus and cortex of the brain were separated on ice, and then weighed and quickly frozen with liquid nitrogen, placed in a refrigerator at −80° C. for standby application.
The tissue lysate (5 μL PMSF protease inhibitor per mL of lysate) was added to the frozen brain tissue at a ratio of […] (6 mL/g tissue), and ultrasonically homogenized in an ice bath. After homogenization, the tissue homogenate was placed in crushed ice for 30 min, and then centrifuged at 12,000×g for 20 min at 4° C. The supernatant (about 200 μL) was taken and stored in a refrigerator at −80° C. for later use. A portion of the supernatant was taken for protein quantification.
Grayscale scanning of the X film was performed and the results were analyzed by the image analysis software of Quantity One 4.6.2. Differences and changes in the expression of the detected proteins between the groups were determined using β-actin as an internal reference. The relative value was calculated by the formula.

## CC1(C)CCC(C)(C)c2c1cc1c(c2NC(=O)c2ccc(NC(=O)NCCN)cc2)C(C)(C)CCC1(C)C [OAB-14, 1-(2-amino) ethyl-3-{4-[(1,1,4,4,5,5,8,8-octamethyl-1,2,3,4,5,6,7,8-octahydro-9-anthryl)carbamoyl]phenyl} urea]
[1]
  inhibition at 10 µM: 24.3 ± 3.18%
[2]
  inhibition at 10 µM: 41.2 ± 1.08%
[3]; 200 mg/kg, continuous intragastric administration 14 days, 8-month-old APP/PS1 mice
  Reduction of the deposition of β-amyloid protein in cerebral cortex and hippocampus: 67.4%
[3]; dose range 50-200 mg/kg, intragastric, 14 days
  Dose-effect relationship of the reduction of β-amyloid deposition: good dose-effect relationship
[4]
  Expression of Aβ metabolizing enzymes NEP and IDE in the brain: increasing the expression
